Assay results reported in patent US10508113B2, “Inhibitors of tyrosine kinase 2 mediated signaling” (AbbVie Inc., priority 2018, dated 2019).

Target: T1, Jak2 (Homo sapiens, UniProt O60674)
T1 construct: Cell Type: UT7 cells engineered to express the erythropoietin (EPO) receptor; endogenous in cells; host or cells: UT7 cells engineered to express the EPO receptor
Assay: Jak2 (PSTATS UT7) alpha screen assay: inhibition of EPO induced phosphorylation of STAT5 in UT7 cells
Assay type: cell-based
Settings: for EC50: EPO induced pSTAT5, UT7 cells; for Tyk2 selectivity over Jak2: calculated from tabulated EC50 data (Jak2 / Tyk2)
Procedure, shortened: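 EPO-receptor-expressing UT7 cells, starved overnight of EPO, preincubated 30 min at 37 °C with compound (8-point 1:3, top 25 µM final), then stimulated with 1 nM EPO for 20 min. After lysis, pSTAT5 (Tyr694/699) measured by SureFire AlphaScreen; EC50 from dose-response of percent activity.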

T1 sequence (O60674 whole entry): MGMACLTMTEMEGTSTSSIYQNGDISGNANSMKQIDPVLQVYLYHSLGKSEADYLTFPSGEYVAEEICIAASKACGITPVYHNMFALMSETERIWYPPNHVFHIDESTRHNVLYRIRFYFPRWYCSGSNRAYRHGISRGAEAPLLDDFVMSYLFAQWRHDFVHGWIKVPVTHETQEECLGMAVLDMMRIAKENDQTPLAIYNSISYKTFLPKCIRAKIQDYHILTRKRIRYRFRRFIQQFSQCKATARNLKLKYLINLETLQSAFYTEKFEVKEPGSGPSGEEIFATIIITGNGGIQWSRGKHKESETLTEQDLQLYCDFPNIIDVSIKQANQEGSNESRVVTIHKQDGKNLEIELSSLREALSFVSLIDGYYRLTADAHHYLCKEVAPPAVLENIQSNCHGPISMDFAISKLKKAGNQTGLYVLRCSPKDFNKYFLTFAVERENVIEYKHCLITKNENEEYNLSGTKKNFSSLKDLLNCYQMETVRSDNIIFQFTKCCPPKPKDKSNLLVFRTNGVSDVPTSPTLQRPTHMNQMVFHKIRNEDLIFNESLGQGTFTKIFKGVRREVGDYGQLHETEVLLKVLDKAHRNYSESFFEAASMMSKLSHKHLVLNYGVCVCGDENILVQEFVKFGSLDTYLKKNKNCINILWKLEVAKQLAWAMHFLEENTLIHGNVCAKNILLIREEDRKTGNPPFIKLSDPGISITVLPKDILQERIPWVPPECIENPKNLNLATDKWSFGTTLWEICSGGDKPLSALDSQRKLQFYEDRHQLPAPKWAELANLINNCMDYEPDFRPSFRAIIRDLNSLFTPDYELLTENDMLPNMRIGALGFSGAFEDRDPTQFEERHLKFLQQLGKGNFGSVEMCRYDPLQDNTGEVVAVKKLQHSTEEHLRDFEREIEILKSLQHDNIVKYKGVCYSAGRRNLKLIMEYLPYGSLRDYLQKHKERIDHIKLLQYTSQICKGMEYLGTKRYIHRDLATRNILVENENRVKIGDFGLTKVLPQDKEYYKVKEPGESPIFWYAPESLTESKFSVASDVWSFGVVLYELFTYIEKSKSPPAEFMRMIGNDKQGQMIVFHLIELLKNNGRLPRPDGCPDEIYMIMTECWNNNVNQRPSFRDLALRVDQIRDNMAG

| EC50 [µM] | Tyk2 selectivity over Jak2 | SMILES |
| --- | --- | --- |
| > 25 | >170-fold | COCc1cc(-c2cn(C)c3cnc(NC(C)=O)cc23)nc([C@]2([C@H](C)O)CCOC2)c1 [Example 22.3, N-(3-(6-((R)-3-((S)-1-hydroxyethyl)tetrahydrofuran-3-yl)-4-(methoxymethyl)pyridin-2-yl)-1-methyl-1H-pyrrolo[2,3-c]pyridin-5-yl)acetamide] |
| > 25 | >223-fold | COCc1cc(-c2cn(C)c3cnc(NC(C)=O)cc23)nc([C@]2([C@@H](C)O)CCOC2)c1 [Example 22.4, N-(3-(6-((R)-3-((R)-1-hydroxyethyl)tetrahydrofuran-3-yl)-4-(methoxymethyl)pyridin-2-yl)-1-methyl-1H-pyrrolo[2,3-c]pyridin-5-yl)acetamide] |
